From US20070049564A1 (Wyeth, priority 2005, published 2007)
In brackets after ≈: the same amount, converted by molar mass. Where two headings read alike, the source gives them in different places.

Tests used:
Assay in all cases: MIC, broth microdilution
E. coli GC 1073 = settings: Escherichia coli
E. coli GC 4560 = settings: Escherichia coli
E. coli GC 2203 = settings: Escherichia coli
E. coli GC 6465 = settings: Escherichia coli
S. aureus GC 6335 = settings: Staphylococcus aureus
S. aureus GC 6466 = settings: Staphylococcus aureus
Experimental: Antimicrobial susceptibility testing. The in vitro activities of the antibiotics are determined by the broth microdilution method as recommended by the National Committee for Clinical Laboratory Standards (NCCLS) (1). Mueller-Hinton II broth (MHBII)(BBL Cockeysville, Md.) is the medium employed in the testing procedures. Microtiter plates containing serial dilutions of each antimicrobial agent are inoculated with each organism to yield the appropriate density (10^5 CFU/ml) in a 100 μl final volume. The plates are incubated for 18-22 hours at 35° C. in ambient air. […] Standard Pharmacological Test Procedures
Presented in Tables I-XIII are representative compounds of Formula I which were evaluated against a panel of 40 selected gram-positive and gram-negative bacteria strains by pre-incubation in water, mouse serum or human serum. Representative compounds were first incubated in mouse serum for an hour prior to the in vitro testing against a panel of selected gram-positive and gram-negative bacteria strains. All compounds were also pre-incubated in water for an hour prior to testing as control. Representative compounds of Formula I were incubated in human serum prior to MIC determination.

E. coli GC 2235 = settings: Escherichia coli
S. aureus GC 1079 = settings: Staphylococcus aureus
S. pyogenes GC 4563 = settings: Streptococcus pyogenes
S. typhimurium GC 2172 = settings: Salmonella enterica, TYPHIMURIUM
E. coli GC 2270 = settings: Escherichia coli
E. coli GC 2271 = settings: Escherichia coli
E. coli GC 3226 = settings: Escherichia coli
E. coli GC 2234 = settings: Escherichia coli
E. faecium GC 4556 = settings: Enterococcus faecium
S. agalactiae GC 4564 = settings: Streptococcus agalactiae
E. coli GC 2233 = settings: Escherichia coli
S. aureus GC 6467 = settings: Staphylococcus aureus
E. coli GC 4559 = settings: Escherichia coli
S. aureus GC 6469 = settings: Staphylococcus aureus
Experimental: Antimicrobial susceptibility testing. The in vitro activities of the antibiotics are determined by the broth microdilution method as recommended by the National Committee for Clinical Laboratory Standards (NCCLS) (1). Mueller-Hinton II broth (MHBII)(BBL Cockeysville, Md.) is the medium employed in the testing procedures. Microtiter plates containing serial dilutions of each antimicrobial agent are inoculated with each organism to yield the appropriate density (10^5 CFU/ml) in a 100 μl final volume. The plates are incubated for 18-22 hours at 35° C. in ambient air.
Representative compounds were first incubated in mouse serum for an hour prior to the in vitro testing against a panel of selected gram-positive and gram-negative bacteria strains. All compounds were also pre-incubated in water for an hour prior to testing as control.

CCC(=O)OCOC(=O)N(CC(=O)Nc1cc(N(C)C)c2c(c1O)C(=O)C1=C(O)[C@]3(O)C(=O)C(C(N)=O)=C(O)[C@@H](N(C)C)[C@@H]3C[C@@H]1C2)C(C)(C)C [Example 49, ({[(2-{[(5aR,6aS,7S,10aS)-9-(aminocarbonyl)-4,7-bis(dimethylamino)-1,8,10a,11-tetrahydroxy-10,12-dioxo-5,5a,6,6a,7,10,10a,12-octahydrotetracen-2-yl]amino}-2-oxoethyl)(tert-butyl)amino]carbonyl}oxy)methyl propionate]
MIC (E. coli GC 1073; GC1073, read-out: MINIMAL INHIBITORY CONCENTRATION MIC, Human Serum): 8 µg/mL (≈ 11.2 µM)
MIC (E. coli GC 1073; GC1073, read-out: MINIMAL INHIBITORY CONCENTRATION MIC, Mouse Serum): 0.5 µg/mL (≈ 0.699 µM)
MIC (E. coli GC 1073; GC1073, read-out: MINIMAL INHIBITORY CONCENTRATION MIC, Water): 32 µg/mL (≈ 44.7 µM)
MIC (E. coli GC 4560; GC4560, read-out: MINIMAL INHIBITORY CONCENTRATION MIC, Human Serum): 0.5 µg/mL (≈ 0.699 µM)
MIC (E. coli GC 4560; GC4560, read-out: MINIMAL INHIBITORY CONCENTRATION MIC, Mouse Serum): 0.12 µg/mL (≈ 0.168 µM)
MIC (E. coli GC 4560; GC4560, read-out: MINIMAL INHIBITORY CONCENTRATION MIC, Water): 1 µg/mL (≈ 1.4 µM)
MIC (E. coli GC 2203; GC2203, read-out: MINIMAL INHIBITORY CONCENTRATION MIC, Human Serum): 4 µg/mL (≈ 5.59 µM)
MIC (E. coli GC 2203; GC2203, read-out: MINIMAL INHIBITORY CONCENTRATION MIC, Mouse Serum): 0.25 µg/mL (≈ 0.349 µM)
MIC (E. coli GC 2203; GC2203, read-out: MINIMAL INHIBITORY CONCENTRATION MIC, Water): 8 µg/mL (≈ 11.2 µM)
MIC (E. coli GC 6465; GC6465, read-out: MINIMAL INHIBITORY CONCENTRATION MIC, Human Serum): 32 µg/mL (≈ 44.7 µM)
MIC (E. coli GC 6465; GC6465, read-out: MINIMAL INHIBITORY CONCENTRATION MIC, Mouse Serum): 2 µg/mL (≈ 2.79 µM)
MIC (E. coli GC 6465; GC6465, read-out: MINIMAL INHIBITORY CONCENTRATION MIC, Water): > 64 µg/mL
MIC (S. aureus GC 6335; GC6335, read-out: MINIMAL INHIBITORY CONCENTRATION MIC, Human Serum): 1 µg/mL (≈ 1.4 µM)
MIC (S. aureus GC 6335; GC6335, read-out: MINIMAL INHIBITORY CONCENTRATION MIC, Mouse Serum): 1 µg/mL (≈ 1.4 µM)
MIC (S. aureus GC 6335; GC6335, read-out: MINIMAL INHIBITORY CONCENTRATION MIC, Water): 2 µg/mL (≈ 2.79 µM)
MIC (S. aureus GC 6466; GC6466, read-out: MINIMAL INHIBITORY CONCENTRATION MIC, Human Serum): 0.12 µg/mL (≈ 0.168 µM)
MIC (S. aureus GC 6466; GC6466, read-out: MINIMAL INHIBITORY CONCENTRATION MIC, Mouse Serum): 0.12 µg/mL (≈ 0.168 µM)
MIC (S. aureus GC 6466; GC6466, read-out: MINIMAL INHIBITORY CONCENTRATION MIC, Water): 0.12 µg/mL (≈ 0.168 µM)
MIC (E. coli GC 2235; GC2235, read-out: MINIMAL INHIBITORY CONCENTRATION MIC, Human Serum): 4 µg/mL (≈ 5.59 µM)
MIC (E. coli GC 2235; GC2235, read-out: MINIMAL INHIBITORY CONCENTRATION MIC, Mouse Serum): 0.5 µg/mL (≈ 0.699 µM)
MIC (E. coli GC 2235; GC2235, read-out: MINIMAL INHIBITORY CONCENTRATION MIC, Water): 8 µg/mL (≈ 11.2 µM)
MIC (S. aureus GC 1079; GC1079, read-out: MINIMAL INHIBITORY CONCENTRATION MIC, Human Serum): 0.5 µg/mL (≈ 0.699 µM)
MIC (S. aureus GC 1079; GC1079, read-out: MINIMAL INHIBITORY CONCENTRATION MIC, Mouse Serum): 0.5 µg/mL (≈ 0.699 µM)
MIC (S. aureus GC 1079; GC1079, read-out: MINIMAL INHIBITORY CONCENTRATION MIC, Water): 0.5 µg/mL (≈ 0.699 µM)
MIC (S. pyogenes GC 4563; GC4563, read-out: MINIMAL INHIBITORY CONCENTRATION MIC, Human Serum): 0.12 µg/mL (≈ 0.168 µM)
MIC (S. pyogenes GC 4563; GC4563, read-out: MINIMAL INHIBITORY CONCENTRATION MIC, Mouse Serum): 0.12 µg/mL (≈ 0.168 µM)
MIC (S. pyogenes GC 4563; GC4563, read-out: MINIMAL INHIBITORY CONCENTRATION MIC, Water): 0.12 µg/mL (≈ 0.168 µM)
MIC (S. typhimurium GC 2172; read-out: MINIMAL INHIBITORY CONCENTRATION MIC, Human Serum): 32 µg/mL (≈ 44.7 µM)
MIC (S. typhimurium GC 2172; read-out: MINIMAL INHIBITORY CONCENTRATION MIC, Mouse Serum): 4 µg/mL (≈ 5.59 µM)
MIC (S. typhimurium GC 2172; read-out: MINIMAL INHIBITORY CONCENTRATION MIC, Water): > 64 µg/mL
MIC (E. coli GC 2270; GC2270, read-out: MINIMAL INHIBITORY CONCENTRATION MIC, Human Serum): 4 µg/mL (≈ 5.59 µM)
MIC (E. coli GC 2270; GC2270, read-out: MINIMAL INHIBITORY CONCENTRATION MIC, Mouse Serum): 0.5 µg/mL (≈ 0.699 µM)
MIC (E. coli GC 2270; GC2270, read-out: MINIMAL INHIBITORY CONCENTRATION MIC, Water): 16 µg/mL (≈ 22.4 µM)
MIC (E. coli GC 2271; GC2271, read-out: MINIMAL INHIBITORY CONCENTRATION MIC, Human Serum): 4 µg/mL (≈ 5.59 µM)
MIC (E. coli GC 2271; GC2271, read-out: MINIMAL INHIBITORY CONCENTRATION MIC, Mouse Serum): 0.25 µg/mL (≈ 0.349 µM)
MIC (E. coli GC 2271; GC2271, read-out: MINIMAL INHIBITORY CONCENTRATION MIC, Water): 8 µg/mL (≈ 11.2 µM)
MIC (E. coli GC 3226; GC3226, read-out: MINIMAL INHIBITORY CONCENTRATION MIC, Human Serum): 8 µg/mL (≈ 11.2 µM)
MIC (E. coli GC 3226; GC3226, read-out: MINIMAL INHIBITORY CONCENTRATION MIC, Mouse Serum): 0.5 µg/mL (≈ 0.699 µM)
MIC (E. coli GC 3226; GC3226, read-out: MINIMAL INHIBITORY CONCENTRATION MIC, Water): 16 µg/mL (≈ 22.4 µM)
MIC (E. coli GC 2234; GC2234, read-out: MINIMAL INHIBITORY CONCENTRATION MIC, Human Serum): 4 µg/mL (≈ 5.59 µM)
MIC (E. coli GC 2234; GC2234, read-out: MINIMAL INHIBITORY CONCENTRATION MIC, Mouse Serum): 0.25 µg/mL (≈ 0.349 µM)
MIC (E. coli GC 2234; GC2234, read-out: MINIMAL INHIBITORY CONCENTRATION MIC, Water): 16 µg/mL (≈ 22.4 µM)
MIC (E. faecium GC 4556; GC4556, read-out: MINIMAL INHIBITORY CONCENTRATION MIC, Human Serum): 1 µg/mL (≈ 1.4 µM)
MIC (E. faecium GC 4556; GC4556, read-out: MINIMAL INHIBITORY CONCENTRATION MIC, Mouse Serum): 0.5 µg/mL (≈ 0.699 µM)
MIC (E. faecium GC 4556; GC4556, read-out: MINIMAL INHIBITORY CONCENTRATION MIC, Water): 2 µg/mL (≈ 2.79 µM)
MIC (S. agalactiae GC 4564; GC4564, read-out: MINIMAL INHIBITORY CONCENTRATION MIC, Human Serum): 0.12 µg/mL (≈ 0.168 µM)
MIC (S. agalactiae GC 4564; GC4564, read-out: MINIMAL INHIBITORY CONCENTRATION MIC, Mouse Serum): 0.12 µg/mL (≈ 0.168 µM)
MIC (S. agalactiae GC 4564; GC4564, read-out: MINIMAL INHIBITORY CONCENTRATION MIC, Water): 0.25 µg/mL (≈ 0.349 µM)
MIC (E. coli GC 2233; GC2233, read-out: MINIMAL INHIBITORY CONCENTRATION MIC, Human Serum): 4 µg/mL (≈ 5.59 µM)
MIC (E. coli GC 2233; GC2233, read-out: MINIMAL INHIBITORY CONCENTRATION MIC, Mouse Serum): 0.25 µg/mL (≈ 0.349 µM)
MIC (E. coli GC 2233; GC2233, read-out: MINIMAL INHIBITORY CONCENTRATION MIC, Water): 8 µg/mL (≈ 11.2 µM)
MIC (S. aureus GC 6467; GC6467, read-out: MINIMAL INHIBITORY CONCENTRATION MIC, Human Serum): 1 µg/mL (≈ 1.4 µM)
MIC (S. aureus GC 6467; GC6467, read-out: MINIMAL INHIBITORY CONCENTRATION MIC, Mouse Serum): 1 µg/mL (≈ 1.4 µM)
MIC (S. aureus GC 6467; GC6467, read-out: MINIMAL INHIBITORY CONCENTRATION MIC, Water): 2 µg/mL (≈ 2.79 µM)
MIC (E. coli GC 4559; GC4559, read-out: MINIMAL INHIBITORY CONCENTRATION MIC, Human Serum): 8 µg/mL (≈ 11.2 µM)
MIC (E. coli GC 4559; GC4559, read-out: MINIMAL INHIBITORY CONCENTRATION MIC, Mouse Serum): 0.5 µg/mL (≈ 0.699 µM)
MIC (E. coli GC 4559; GC4559, read-out: MINIMAL INHIBITORY CONCENTRATION MIC, Water): 16 µg/mL (≈ 22.4 µM)
MIC (S. aureus GC 6469; GC6469, read-out: MINIMAL INHIBITORY CONCENTRATION MIC, Human Serum): 1 µg/mL (≈ 1.4 µM)
MIC (S. aureus GC 6469; GC6469, read-out: MINIMAL INHIBITORY CONCENTRATION MIC, Mouse Serum): 1 µg/mL (≈ 1.4 µM)
MIC (S. aureus GC 6469; GC6469, read-out: MINIMAL INHIBITORY CONCENTRATION MIC, Water): 1 µg/mL (≈ 1.4 µM)
